The record followed here is patent publication US20120108538A1, “SULFATED POLYSACCHARIDES HAVING ANTIPLASMODIAL ACTIVITY AND METHODS AND PRODUCTS FOR IDENTIFYING ANTIPLASMODIAL ACTIVITY” (priority 2009, published 2012).

≈ marks a conversion by molar mass, not a printed value. Entries after “also recorded” stand apart in the source; their conditions may differ. Ends that are not written are not given here.

For experiment [1], the system named is P. falciparum blood stage growth. Description: Growth inhibition assay (GIA), flow cytometry. To be noted: for IC50, inhibition of P. falciparum blood stage growth in GIA / inhibitory activity against P. falciparum blood stage growth in GIA (words): 3D7 parasite line; for IC50, inhibition of P. falciparum blood stage growth in GIA: one cycle of parasite growth. It is filed as cell-based, Plasmodium falciparum. How it is done: P. falciparum was cultured as described. Parasites were maintained in culture media of RPMI-HEPES supplemented with 5% (vol/vol) heat inactivated (56° C. 1 hr) human serum (Australian Red Cross Blood Bank),. […] (Gibco), 10mM L-glutamine (Gibco) and 25 mM […]. Parasites were grown at 37° C., 2% hematocrit, O+ human erythrocytes (Australian Red Cross Blood Bank), 1% O2 4% CO2 95% N2 atmosphere. Sorbitol (Sigma-Aldrich) was used to synchronize cultures. 32. Persson K E, Lee C T, Marsh K, Beeson J G (2006) Development and optimization of high-throughput methods to measure Plasmodium falciparum-specific growth inhibitory antibodies. J Clin Microbiol 44: 1665-1673.33. Lambros C, Vanderberg J P (1979) Synchronization of Plasmodium falciparum erythrocytic stages in culture. J Parasitol 65: 418-420.
Heparin and K5 polysaccharides (Table 1) were tested for inhibitory activity against P. falciparum parasites using high throughput growth inhibitory assays (GlAs). Duplicate 25 μl suspensions of synchronized parasites, 2% parasitemia (32 hr trophozoite), 1% hematocrit with normal or enzymatically treated erythrocyctes, were incubated with inhibitory compounds in 96 well sterile U-bottom plates (Falcon). For humidification, outside wells were filled with sterile human tonicity phosphate-buffered saline (HT-PBS). Plates were incubated as for parasite culture for 44 hrs and analyzed. Parasites were stained with 10 μg/mL ethidium bromide (EtBr) (BioRad), HT-PBS, 1 hr in darkness. Cells were washed and re-suspended in 200 μL HT-PBS. Parasitemia was measured using FACSCalibur flow-cytometry. Data were analyzed using FlowJo (Tree Star), gating on intact erythrocytes and determining parasitemia by EtBr staining. Inhibitory effects of compounds were expressed as percent growth of uninhibited controls (HT-PBS) for each experiment.
Erythrocytes were treated with neuraminidase, chymotrypsin and trypsin as described previously. Erythrocytes were washed with RPMI-HEPES and incubated with neuraminidase ([…], 15 minutes), chymotrypsin (1 mg/mL, 45 minutes) or trypsin (100 μg/mL, […]) at 37° C. Neuraminidase treated bells were washed three times with RPMI-HEPES and chymotrypsin and trypsin treated cells were washed once with culture media and twice with RPMI-HEPES and then used in GIAs. 34. Persson K E, McCallum F J, Reiling L, Lister N A, Stubbs J, et al. (2008) Variation in use of erythrocyte invasion pathways by Plasmodium falciparum mediates evasion of human inhibitory antibodies. J Clin Invest 118: 342-351.

The target of a further experiment is T1, lactoferrin (Homo sapiens, UniProt P02788).
T1 construct: purchased
T1 sequence (P02788 20-710, species assumed): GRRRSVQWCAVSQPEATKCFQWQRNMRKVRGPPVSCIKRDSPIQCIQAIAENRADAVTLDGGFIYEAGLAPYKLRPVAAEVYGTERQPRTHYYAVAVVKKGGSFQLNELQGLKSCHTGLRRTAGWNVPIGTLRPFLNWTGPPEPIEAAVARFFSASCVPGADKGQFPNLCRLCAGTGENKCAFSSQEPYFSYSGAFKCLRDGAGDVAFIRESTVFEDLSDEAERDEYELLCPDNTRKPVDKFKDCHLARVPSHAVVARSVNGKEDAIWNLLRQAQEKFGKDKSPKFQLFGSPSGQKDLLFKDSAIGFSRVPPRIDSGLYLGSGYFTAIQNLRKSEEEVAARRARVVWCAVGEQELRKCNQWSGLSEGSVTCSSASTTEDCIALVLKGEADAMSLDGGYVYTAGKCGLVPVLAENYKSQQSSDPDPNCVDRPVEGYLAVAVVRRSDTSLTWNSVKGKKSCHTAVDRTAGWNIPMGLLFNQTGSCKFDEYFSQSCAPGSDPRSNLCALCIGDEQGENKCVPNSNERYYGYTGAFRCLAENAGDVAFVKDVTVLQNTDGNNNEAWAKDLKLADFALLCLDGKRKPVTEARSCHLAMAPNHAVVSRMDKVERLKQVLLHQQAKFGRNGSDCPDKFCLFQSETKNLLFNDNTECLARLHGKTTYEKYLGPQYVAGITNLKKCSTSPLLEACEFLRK
Description: Heparin-BSA binding assay (positive control protein). To be noted: data not shown. How it is done:
(§1) Recombinant merozoite antigens were coated (1 μg/mL) onto 96 well plates (Nunc Maxisorb) in HT-PBS overnight at 4° C. Plates were washed and blocked with 1% casein, 1 hr, room temperature. Plates were incubated with heparin-BSA conjugate with soluble inhibitors and detected with anti-BSA (rabbit) (Sigma-Aldrich) antibodies and anti-rabbit -HRP. Detection was performed with 2,2′-azino-bis(3-ethylbenzthiazoline-6-sulphonic acid) (Sigma-Aldrich) monitored for colour change and measured for absorbance at 405 nm. All incubations were performed in HT-PBS 0.1% casein 0:05% Tween20, 1 hr at room temperature. Plates were washed 3 times HT-PBS 0.05% Tween20 between incubations.

The target of experiment [2] is T2, MSP1-42 (Plasmodium falciparum, UniProt Q8I0U8). Description: Binding of native merozoite proteins to heparin-agarose beads with soluble inhibitors. More on the design: proteolytically processed into 83 kDa, 30 kDa, 38 kDa and a C-terminal 42kDa (MSP1-42) fragment; endogenous in cells; host or cells: P. falciparum schizont-stage cultures, Triton X-100 extract; species or system P. falciparum. To be noted: soluble inhibitor 200 μg/mL. From the text: Synchronized schizont stage (40-48 hr, 5-8% parasitemia) cultures were used for protein extraction. Uninfected erythrocytes were lysed with 0.15% saponin (Kodak) on ice for ten minutes. Remaining pellets were washed three times with cold HT-PBS. Protein from schizonts was extracted with 5 times volume of 1% TritonX100 (TX100) (Sigma-Aldrich, Australia), HT-PBS with protease inhibitors (Roche). Insoluble components were pelleted by centrifugation and supernatants collected. Schizont TX100 extracted proteins were bound to heparin-agarose beads (Sigma-Aldrich, Australia) as previously described. Heparin-agarose beads were washed once with 1% casein in PBS, once in PBS, and then blocked with 1% casein in PBS overnight at 4° C. TX100 merozoite protein extracts where incubated with beads containing 0.1% casein and 200 μg/mL of test inhibitor, or PBS as control, overnight at 4° C.; 50 μL of packed beads and 100 μL protein and inhibitor were used or each test sample. Inhibitors used were heparin and CSC. Unbound proteins in the supernatant were collected through Micro Bio-Spin Chromatography Columns (Bio-Rad). After incubation, beads were washed five times with PBS containing 0.1% casein and 1% Triton X-100. Bound proteins were eluted from beads with 50 μL of warmed reducing sample buffer. Bound and unbound proteins were separated by SDS-PAGE under reducing conditions and blotted onto membranes for probing with antibody detection with anti-MSP1 or anti-EBA175. 36. Baum J, Chen L, Healer J, Lopaticki S, Boyle M, et al. (2009) Reticulocyte-binding protein homologue 5—an essential adhesin involved in invasion of human erythrocytes by Plasmodium falciparum: Int J Parasitol 39: 371-380.
T2 sequence (Q8I0U8 1327-1699): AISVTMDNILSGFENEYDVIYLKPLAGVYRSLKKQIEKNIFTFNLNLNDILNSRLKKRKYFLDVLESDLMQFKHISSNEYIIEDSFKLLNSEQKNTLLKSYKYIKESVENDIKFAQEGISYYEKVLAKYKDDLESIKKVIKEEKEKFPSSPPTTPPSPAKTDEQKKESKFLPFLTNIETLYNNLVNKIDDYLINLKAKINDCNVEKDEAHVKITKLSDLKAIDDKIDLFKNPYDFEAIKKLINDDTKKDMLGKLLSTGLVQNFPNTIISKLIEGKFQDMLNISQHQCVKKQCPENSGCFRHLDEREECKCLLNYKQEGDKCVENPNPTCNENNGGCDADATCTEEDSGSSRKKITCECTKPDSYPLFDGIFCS

For experiment [3], the system named is purified P. falciparum merozoites invading RBCs. Description: Invasion inhibition assay (IIA) using purified merozoites. The experiment is classed as cell-based, Plasmodium falciparum. The procedure: Purified merozoites were mixed with uninfected RBCs and cultured using standard conditions in 96 well U-bottom plates at a final volume of 50 μl or 100 μl per well. Specific assay conditions were varied for different test conditions, as described in the Results section of the manuscript. Assays were typically performed under static conditions. Some assays were also performed with agitation of merozoite:RBC suspensions.
To test the activity of inhibitory compounds on invasion (Supporting Information Table 3), E64 treated schizonts were resuspended and filtered in culture medium without human serum. A typical merozoite invasion inhibition assay consisted of filtered merozoites (40 ul) added to RBC suspension (5 ul at […]; final concentration 1% hematocrit) and inhibitory compounds (5 ul at 10-times the final concentration required) in 96-well plates. Merozoite:RBCs suspensions containing inhibitors were incubated for one hour and then washed twice with culture medium to remove inhibitors, then resuspended in fresh culture media and incubated and analysed as for standard merozoite invasion assays. A number of compounds were also tested for inhibition of schizont rupture by incubating late stage schizonts (1-2% parasitaemia, 1% haematocrit in 50 ul) with a 1 in 10 dilution of compounds and monitoring the course of schizont rupture at 3 time points over an 8 hour period by flow cytometry.

A further experiment deals with P. falciparum schizonts. Nature of the experiment: Schizont rupture under E64 treatment. It is filed as cell-based, Plasmodium falciparum. The conditions noted are these: 10 uM E64. How it is done:
Parasites were then incubated until most parasites had developed to late-stage pigmented trophozoites and schizonts (typically 40-42 hours). Early to mid schizont stage parasites (40-44 hours post invasion) were separated from uninfected RBC and early-stage infected RBCs (resulting in >95% purity) with a MAC magnet separation column (Macs Miltenyi Biotec). Purified schizonts were then incubated with 10 uM of E64 (Sigma) for 7-8 hours; Applicant typically used approximately 30 ml of culture media for every 100 ml of starting culture (3% hematocrit, 3% parasitemia). After approximately 6 hours of incubation with E64, treated schizonts were pelleted by centrifugation at 1900 g for 5 minutes. Supernatant was removed and schizonts were resuspended in fresh culture media. Resuspended E64 treated parasites were filtered through a 1.2 um Acrodisc 32 mm syringe filter (Pall Corporation). […]
To test the activity of inhibitory compounds on invasion (Supporting Information Table 3), E64 treated schizonts were resuspended and filtered in culture medium without human serum. […] Merozoite:RBCs suspensions containing inhibitors were incubated for one hour and then washed twice with culture medium to remove inhibitors, then resuspended in fresh culture media and incubated and analysed as for standard merozoite invasion assays. […]

Experiment [4] concerns the target T2, MSP1-42. Description: Heparin-BSA binding assay. The arrangement: a C-terminal 42kDa (MSP1-42) fragment; made in house; host or cells: E. coli; species or system P. falciparum. The conditions noted are these: soluble inhibitor. How it is done:
as §1

With fucoidan, the “IC50, inhibition of P. falciparum blood stage growth in GIA” value in experiment [1] amounted to 38 µg/mL.

chondroitin sulfate C [CSC]: the “inhibition of lactoferrin binding to heparin-BSA” value on lactoferrin was “not”. For the same compound, the “inhibition of native MSP1-42 binding to heparin-agarose beads” value (from here on “inhibition of native MSP1-42 binding”) on MSP1-42 [2] is reported as “not”. The “inhibitory activity against P. falciparum blood stage growth in GIA (words)” value in experiment [1] was “non-inhibitory; also recorded: not inhibitory”.

For the compound chondroitin sulfate E [CSE], the “inhibition of different P. falciparum lines” value in experiment [1] (3D7, W2mef, D10, E8B, XIE, HCS3, SA-dependent and SA-independent invasion) is reported as “inhibited to similar levels”. In experiment [1], the “IC50, inhibition of P. falciparum blood stage growth in GIA” value came out at 26.7 µg/mL.

Turning to `CC(C)C[C@H](NC(=O)[C@H]1O[C@@H]1C(=O)O)C(=O)NCCCCN=C(N)N` (relative stereo) [E64, trans-Epoxysuccinyl-L-leucylamido(4-guanidino)butane], the “effect on invasive capacity of merozoites” value in experiment [3] (merozoites incubated with E64) is “did not affect”. For the same compound, in the experiment with P. falciparum schizonts, the “effect on schizont rupture / merozoite release” value is “inhibiting rupture”.

`CO[C@H]1O[C@H](COS(=O)(=O)O)[C@@H](O[C@@H]2O[C@@H](C(=O)O)[C@@H](O[C@H]3O[C@H](COS(=O)(=O)O)[C@@H](O[C@@H]4O[C@H](C(=O)O)[C@@H](O[C@H]5O[C@H](COS(=O)(=O)O)[C@@H](O)[C@H](O)[C@H]5NS(=O)(=O)O)[C@H](O)[C@H]4O)[C@H](OS(=O)(=O)O)[C@H]3NS(=O)(=O)O)[C@H](O)[C@H]2OS(=O)(=O)O)[C@H](O)[C@H]1NS(=O)(=O)O` [Fondaparinux]: in experiment [1] (Plasmodium falciparum, read-out: IC50 against Plasmodium falciparum invasion), the IC50 was around 100 µg/mL (≈ 66.3 µM).

de-6-O-sulfated heparin: the “inhibition of native MSP1-42 binding” value on MSP1-42 [2] was “not”. In addition, the “inhibition of native MSP1-42 binding” value at MSP1-42 [2] (listed as de-60-sulfated) was “unable to inhibit binding”. For the same compound, the “inhibition of heparin-BSA binding to recombinant MSP1-42” value on MSP1-42 [4] is “inhibition”. For the same compound, in experiment [1], the “inhibitory activity against P. falciparum blood stage growth in GIA (words)” value is “reduced activity” and the “IC50, inhibition of P. falciparum blood stage growth in GIA” value was found to be 373 µg/mL.

Take `C=C1[C@@H](C)[C@H]2[C@H](Cc3ccccc3)NC(=O)[C@]23[C@H](OC(C)=O)/C=C/[C@@](C)(O)C(=O)[C@@H](C)C/C=C/[C@H]3[C@@H]1O` [cytochalasin D]: the “inhibition of merozoite invasion in IIA” value in experiment [3] is given as “effectively inhibited merozoite invasion”.

As for dextran sulfate, in experiment [1], the “IC50, inhibition of P. falciparum blood stage growth in GIA” value came to 37 µg/mL.

In the case of de-2-O-sulfated heparin, in experiment [1], the “inhibitory activity against P. falciparum blood stage growth in GIA (words)” value is listed as “reduced activity” and the “IC50, inhibition of P. falciparum blood stage growth in GIA” value amounted to 123 µg/mL.

Regarding `O=C(O)CN(CCN(CC(=O)O)CC(=O)O)CC(=O)O` [EDTA], the “inhibition of merozoite invasion in IIA” value in experiment [3] is given as “inhibited invasion”.

With chondroitin sulfate D [CSD], the “inhibitory activity against P. falciparum blood stage growth in GIA (words)” value in experiment [1] was “not inhibitory”.

For the compound de-N-sulfated heparin, the “inhibition of native MSP1-42 binding” value at MSP1-42 [2] was “not”; at MSP1-42 [2] (listed as de-N-sulfated) it was “unable to inhibit binding”. Moreover, the “inhibitory activity against P. falciparum blood stage growth in GIA (words)” value in experiment [1] is “no activity”; in experiment [1] (listed as de-N-sulfated), “loss of inhibitory activity”.

Turning to “de-N de-O-sulfated heparin [de-N/O-sulfated heparin]”, the “inhibition of heparin-BSA binding to recombinant MSP1-42” value at MSP1-42 [4] is reported as “inhibition”. Also, the figures for the “inhibitory activity against P. falciparum blood stage growth in GIA (words)” value in experiment [1] and in experiment [1] (listed as Completely desulfated heparin) were “loss of inhibitory activity” and “no activity”, respectively.

Regarding “chondroitin sulfate B-2-6-di-sulfated [CSB-2,6-OS]”, the “inhibitory activity against P. falciparum blood stage growth in GIA (words)” value in experiment [1] is given as “some inhibitory activity”.

With “VFAEFLPLFSKFGSRMHILK [AMA1-binding peptide]”, the “inhibition of merozoite invasion in IIA” value in experiment [3] is reported as “effectively inhibited merozoite invasion”.

Turning to “chondroitin sulfate B-2,4-di-sulfated [CSB-2,4-OS]”, in experiment [1], the “inhibitory activity against P. falciparum blood stage growth in GIA (words)” value is “not inhibitory”.
